Source: ChEMBL document CHEMBL1143289, “Potent and selective adenosine A2A receptor antagonists: 1,2,4-Triazolo[1,5-c]pyrimidines” (Bioorg Med Chem Lett, 2009)

Columns and labels:
Rattus norvegicus [1] = assay: Inhibition of haloperidol-induced catalepsy in rat at 1 mg/kg, po after 1 hr; assay type: functional
Rattus norvegicus [2] = assay: Inhibition of haloperidol-induced catalepsy in rat at 0.3 mg/kg, po after 4 hrs; assay type: functional; conditions: read-out: INH
Rattus norvegicus [3] = assay: Inhibition of haloperidol-induced catalepsy in rat at 0.1 mg/kg, po after 1 hr; assay type: functional; conditions: read-out: INH
Rattus norvegicus [4] = assay: Inhibition of haloperidol-induced catalepsy in rat at 0.3 mg/kg, po after 1 hr; assay type: functional; conditions: read-out: INH
Rattus norvegicus [5] = assay: Inhibition of haloperidol-induced catalepsy in rat at 0.1 mg/kg, po after 4 hrs; assay type: functional
Rattus norvegicus [6] = assay: Inhibition of haloperidol-induced catalepsy in rat at 1 mg/kg, po after 4 hrs; assay type: functional
Rattus norvegicus [7] = assay: Inhibition of haloperidol-induced catalepsy in rat at 3 mg/kg, po after 1 hr; assay type: functional
Homo sapiens = species on record: Homo sapiens; assay: Selectivity for human adenosine A1 receptor over human adenosine A2A receptor
Adenosine receptor A2a = Adenosine receptor A2a (Homo sapiens, UniProt P29274); assay: Displacement of [3H]SCH58261 from human adenosine A2A receptor expressed in HEK293 cells; assay type: cell-based
[8] = AUC in rat plasma at 3 mg/kg, po; assay type: ADME, organism-based; design: dose 3 mg/kg, route oral
Rattus norvegicus [9] = assay: Inhibition of haloperidol-induced catalepsy in rat at 3 mg/kg, po after 4 hrs; assay type: functional
Rattus norvegicus [10] = assay: Inhibition of haloperidol-induced catalepsy in rat at 0.3 mg/kg, po after 1 hr; design: scale not given: the % may be the effect or the level left

Sequence of Adenosine receptor A2a (P29274 whole entry): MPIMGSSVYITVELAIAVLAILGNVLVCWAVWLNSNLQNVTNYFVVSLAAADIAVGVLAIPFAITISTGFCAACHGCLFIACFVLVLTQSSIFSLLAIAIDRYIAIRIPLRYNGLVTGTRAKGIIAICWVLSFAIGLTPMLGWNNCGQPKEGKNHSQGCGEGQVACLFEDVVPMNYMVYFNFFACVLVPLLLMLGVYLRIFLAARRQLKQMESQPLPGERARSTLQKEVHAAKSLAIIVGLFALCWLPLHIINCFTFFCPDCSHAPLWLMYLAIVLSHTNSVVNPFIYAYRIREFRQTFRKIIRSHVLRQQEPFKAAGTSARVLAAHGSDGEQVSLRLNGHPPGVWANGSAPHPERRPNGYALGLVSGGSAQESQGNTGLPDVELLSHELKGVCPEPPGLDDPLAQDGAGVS

SMILES	inhibition in vivo at 1 mg/kg (Rattus norvegicus [1]) [%]	inhibition in vivo at 1 mg/kg (Rattus norvegicus [6]) [%]	inhibition in vivo at 3 mg/kg (Rattus norvegicus [7]) [%]	Ratio (Homo sapiens)	Ki (Adenosine receptor A2a) [nM]	AUC [8] [ng·h/mL]	inhibition in vivo at 3 mg/kg (Rattus norvegicus [9]) [%]	other results
COCCOc1ccc(N2CCN(CCn3ncc4c3nc(N)n3nc(-c5ccco5)nc43)CC2)cc1 [PRELADENANT]	77	70	–	–	–	–	–	inhibition in vivo at 0.3 mg/kg (Rattus norvegicus [2]): 60%; inhibition in vivo at 0.1 mg/kg (Rattus norvegicus [3]): 25%; inhibition in vivo at 0.3 mg/kg (Rattus norvegicus [4]): 60%; inhibition in vivo at 0.1 mg/kg (Rattus norvegicus [5]): 60%
COCCOc1ccc(N2CCN(CCSc3cc4nc(-c5ccco5)nn4c(N)n3)CC2)cc1	50	15	65	965	1.5	910	65	–
COCCOc1ccc(N2CCN(CCN(CCOC)c3cc4nc(-c5ccco5)nn4c(N)n3)CC2)cc1	29	6	57	338	0.7	355	37	–
COCCOc1ccc(N2CCN(CCN(CC3CC3)c3cc4nc(-c5ccco5)nn4c(N)n3)CC2)cc1	7	32	65	234	0.8	245	77	–
Nc1nc(SCCN2CCN(c3ccc(F)cc3F)CC2)cc2nc(-c3ccco3)nn12	50	5	50	365	1.4	229	45	–
COc1ccc(CCN(C)c2cc3nc(-c4ccco4)nn3c(N)n2)cc1	–	–	–	473	1.8	–	–	–
Nc1nc(NCCN2CCN(c3ccc(F)cc3F)CC2)cc2nc(-c3ccco3)nn12	–	–	–	262	1.5	–	–	–
COc1ccc(CCCc2cc3nc(-c4ccco4)nn3c(N)n2)cc1	–	–	–	31	11.5	–	–	–
COc1ccc(CCOc2cc3nc(-c4ccco4)nn3c(N)n2)cc1	–	–	–	58	2.8	–	–	–
CN(CCN1CCN(c2ccc(F)cc2F)CC1)c1cc2nc(-c3ccco3)nn2c(N)n1	50	30	75	1580	1	53	35	–
Nc1nc2c(cnn2CCN2CCN(c3ccc(F)cc3F)CC2)c2nc(-c3ccco3)nn12	75	80	–	–	–	–	–	Activity (Rattus norvegicus [10]): 75%
COCCOc1ccc(N2CCN(CCOc3cc4nc(-c5ccco5)nn4c(N)n3)CC2)cc1	25	25	–	405	2.8	943	–	–
CN(CCc1ccc(F)cc1)c1cc2nc(-c3ccco3)nn2c(N)n1	–	–	–	248	2	–	–	–
CCN(CCN1CCN(c2ccc(OCCOC)cc2)CC1)c1cc2nc(-c3ccco3)nn2c(N)n1	–	–	–	102	1.5	230	–	–
COCCOc1ccc(N2CCN(CCOc3cc4nc(-c5ccc(Cl)o5)nn4c(N)n3)CC2)cc1	–	–	–	40	40	6	–	–
COCCOc1ccc(N2CCN(CCN(C)c3cc4nc(-c5ccccc5)nn4c(N)n3)CC2)cc1	–	–	–	56	25	–	–	–

SMILES	inhibition in vivo at 1 mg/kg (Rattus norvegicus [1]) [%]	inhibition in vivo at 1 mg/kg (Rattus norvegicus [6]) [%]	inhibition in vivo at 3 mg/kg (Rattus norvegicus [7]) [%]	Ratio (Homo sapiens)	Ki (Adenosine receptor A2a) [nM]	AUC [8] [ng·h/mL]	inhibition in vivo at 3 mg/kg (Rattus norvegicus [9]) [%]	other results
COc1ccc(CCNc2cc3nc(-c4ccco4)nn3c(N)n2)cc1	–	–	–	20	5.8	–	–	–
COCCOc1ccc(N2CCN(CCN(C)c3cc4nc(-c5cccc(C#N)c5)nn4c(N)n3)CC2)cc1	–	–	29	1070	0.7	546	31	–
Cc1nccnc1-c1nc2cc(N(C)CCN3CCN(c4ccc(F)cc4F)CC3)nc(N)n2n1	–	–	–	7370	0.3	–	–	–
Nc1nc(OCCN2CCN(c3ccc(F)cc3F)CC2)cc2nc(-c3ccco3)nn12	45	–	25	275	6	187	0	–
COCCOc1ccc(N2CCN(CCN(C)c3cc4nc(-c5ccco5)nn4c(N)n3)CC2)cc1	15	0	–	694	2.5	521	–	–
CN(CCN1CCN(c2ccc(F)cc2F)CC1)c1cc2nc(-c3cccc(C#N)c3)nn2c(N)n1	–	–	35	620	1.8	1300	14	–
CCN(CCN1CCN(c2ccc(F)cc2F)CC1)c1cc2nc(-c3ccco3)nn2c(N)n1	–	–	–	312	0.9	50	–	–
COCCOc1ccc(N2CCN(CCNc3cc4nc(-c5ccco5)nn4c(N)n3)CC2)cc1	–	–	–	145	9.5	103	–	–
COc1ccc(CN(C)c2cc3nc(-c4ccco4)nn3c(N)n2)cc1	–	–	–	40	46	–	–	–
CN(CCN1CCN(c2ccc(F)cc2F)CC1)c1cc2nc(-c3cnco3)nn2c(N)n1	–	–	–	7000	0.3	–	–	–
COc1ccc(CCCN(C)c2cc3nc(-c4ccco4)nn3c(N)n2)cc1	–	–	–	76	5.7	–	–	–
COCCN(CCc1ccc(F)cc1)c1cc2nc(-c3ccco3)nn2c(N)n1	–	–	–	566	1	–	–	–
Nc1nc(N(CCN2CCN(c3ccc(F)cc3F)CC2)CC2CC2)cc2nc(-c3ccco3)nn12	40	34	65	831	0.3	17	41	–
CCN(CCc1ccc(F)cc1)c1cc2nc(-c3ccco3)nn2c(N)n1	–	–	–	525	3	–	–	–
COc1ccc(CCSc2cc3nc(-c4ccco4)nn3c(N)n2)cc1	–	–	–	58	1.6	–	–	–
COCCN(CCN1CCN(c2ccc(F)cc2F)CC1)c1cc2nc(-c3ccco3)nn2c(N)n1	–	–	56	1060	0.5	–	57	–
